Patent US20210134398A1, “Combinatorial Chemistry Computational System and Enhanced Selection Method” (Southern Methodist University, priority 2019, published 2021)
“Also recorded” adds a separate entry of the source. Where two headings read alike, the source gives them in different places.

Assays:
[1] = test system: P-gp overexpressing prostate cancer cell line, DU145TXR; test: MTT cell viability assay, resensitization to paclitaxel; format: cell-based, human; conditions: for Fold vs PTX + 29: vs paclitaxel + parental compound 29; for Fold vs PTX (fold increased sensitivity): vs paclitaxel alone; for Resensitization of DU145TXR to paclitaxel / MDR reversal (in words): 3 to 10 μM inhibitor
Source text: The Group 1 ChemGen/docking routine produced variants of P-gp inhibitor 29 resensitize a multidrug resistant, P-gp overexpressing prostate cancer cell line to paclitaxel. The mitochondrial reduction potential of cells is often used as an indicator for cell viability using MTT assays^4. Using these assays it was observed that the five Group 1 derivatives of 29 predicted through the ChemGen/docking routine and synthesized here, 216, 227, 231, 541 and 551, re-sensitized the P-gp overexpressing prostate cancer cell line, DU145TXR^33, to the chemotherapeutic, paclitaxel (FIG. 12, showing results of assays at concentrations of 3 μM, 5 μM, 7 μM, and 10 μM).
Cytotoxicity of the chemotherapeutic, paclitaxel (PTX) to P-gp overexpressing prostate cancer cells, DU145TXR, was determined in the absence and presence of the ChemGen designed 29-variants, 216, 227, 231, 541 and 551. For each experimental compound IC50 values of PTX alone or in the presence of inhibitors, fold improvement of PTX sensitivity in the presence of inhibitor, and fold improvement of PTX sensitivity by variants compared to parental compound 29 are given.
Effects of Group 2 variants on the paclitaxel sensitivity of P-glycoprotein overexpressing prostate cancer cells, DU145TXR. MTT assays were again used to assess the efficacy of the new structural 29-variants on sensitizing the chemotherapy-resistant prostate cancer cell line, DU145TXR, to paclitaxel, at concentrations of 3 μM, 5 μM, 7 μM, and 10 μM as shown in FIG. 15 and Table 4.
MTT cell viability assay. Cells were trypsinized from monolayers and seeded with 3000 cells in 150 μL of complete medium in a 96 well plate. After 24 hours, cells were treated for 48 hours with paclitaxel (Acros Organics, NJ) and/or P-gp inhibitory compounds dissolved in DMSO, or DMSO controls. All additions were diluted into complete medium. After 48 hours of treatment, MTT assays were performed as described^41 using 5 mg/mL of MTT (Acros Organics, NJ) solution prepared in PBS (137 mM NaCl, 2.7 mM KCl, 10 mM Na2HPO4, 1.8 mM KH2PO4, pH 7.4). After 4 hours of incubation with MTT, the media was removed and the formazan crystals were dissolved in 100 μL of DMSO. The absorbance at 570 nm was then measured using a BioTek Cytation 5 imaging multi-mode reader (Bio-Tek, Winooski, Vt.). Percent viability was calculated using DMSO treated cells as representative for 100% viability, according to Equation 1. Background absorbance was determined using MTT and complete medium without cells and subtracted from all the test values. Equation 1:
The results were plotted as the mean with standard deviation (SD) of eight replicates per concentration from at least two independent experiments with n=8. The graphical representations and IC50 values were determined using four parameter variable slope non-linear regression, using the following equation: Y=bottom+(top-bottom)/(1+10^((log IC50−X)*Hill Slope) (GraphPad Prism™, La Jolla Calif., USA, Version 6.05). The reported “fold sensitization” was calculated as follows, per Equation 2: […]

[2] = target: T1, Normal Human MDR1 P-glycoprotein (Homo sapiens, UniProt P08183); test: ATPase activity assay (basal and verapamil-stimulated), P-gp in nanodiscs; format: biochemical; conditions: for Effect on stimulated ATPase / Stimulated ATPase: in the presence of verapamil; for Stimulated ATPase / Basal ATPase: ± standard deviation; for Effect on basal ATPase / Basal ATPase: no added transport substrate
T1 construct: made in house; host or cells: Pichia pastoris (P-gp); E. coli BL21 (DE3) (MSP1E3D1)
T1 sequence (P08183 whole entry): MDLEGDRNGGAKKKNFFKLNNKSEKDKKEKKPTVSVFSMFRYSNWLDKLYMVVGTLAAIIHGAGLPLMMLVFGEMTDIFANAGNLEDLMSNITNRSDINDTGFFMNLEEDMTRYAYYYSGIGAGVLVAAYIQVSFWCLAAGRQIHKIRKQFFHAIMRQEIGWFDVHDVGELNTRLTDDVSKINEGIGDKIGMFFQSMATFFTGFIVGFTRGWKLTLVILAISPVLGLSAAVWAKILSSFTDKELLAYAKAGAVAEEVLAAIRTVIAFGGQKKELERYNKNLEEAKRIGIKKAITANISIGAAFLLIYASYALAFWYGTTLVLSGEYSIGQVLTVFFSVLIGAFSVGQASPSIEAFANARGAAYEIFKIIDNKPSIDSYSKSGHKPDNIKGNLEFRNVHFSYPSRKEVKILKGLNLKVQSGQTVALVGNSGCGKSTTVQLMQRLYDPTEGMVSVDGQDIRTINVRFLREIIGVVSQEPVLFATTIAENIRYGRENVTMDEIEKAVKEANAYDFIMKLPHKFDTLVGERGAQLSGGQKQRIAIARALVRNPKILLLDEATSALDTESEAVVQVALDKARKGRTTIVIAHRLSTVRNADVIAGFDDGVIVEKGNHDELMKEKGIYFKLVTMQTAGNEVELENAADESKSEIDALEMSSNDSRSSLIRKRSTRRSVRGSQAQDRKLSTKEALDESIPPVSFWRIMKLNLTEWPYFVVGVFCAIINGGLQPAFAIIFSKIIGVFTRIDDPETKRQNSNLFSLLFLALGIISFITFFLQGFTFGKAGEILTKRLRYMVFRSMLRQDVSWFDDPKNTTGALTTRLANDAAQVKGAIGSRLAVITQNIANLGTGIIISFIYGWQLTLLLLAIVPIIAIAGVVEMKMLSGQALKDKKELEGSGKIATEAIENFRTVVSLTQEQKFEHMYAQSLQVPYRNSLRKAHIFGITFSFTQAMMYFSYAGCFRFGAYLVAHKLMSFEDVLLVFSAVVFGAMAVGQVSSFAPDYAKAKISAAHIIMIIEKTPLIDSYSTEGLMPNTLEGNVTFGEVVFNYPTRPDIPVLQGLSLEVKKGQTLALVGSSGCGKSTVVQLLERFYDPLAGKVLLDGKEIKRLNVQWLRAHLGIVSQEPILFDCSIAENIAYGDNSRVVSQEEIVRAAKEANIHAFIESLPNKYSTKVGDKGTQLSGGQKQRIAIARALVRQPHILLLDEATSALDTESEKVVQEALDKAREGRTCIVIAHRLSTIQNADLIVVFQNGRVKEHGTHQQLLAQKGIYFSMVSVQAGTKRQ
Source text: To assess whether the observed discrepancies of compounds stimulating basal P-gp ATPase activity but not being transport substrates of the human pump in the cell culture assessments were due to the fact that these biochemical assays used a cysteineless variant of the mouse MDR3 P-glycoprotein, the experiments were repeated using normal human MDR1 P-gp. In order to stabilize the human protein for the activity assays, the protein was assembled into membrane nanodiscs as described herein.
P-glycoprotein Purification. Cysteine-less MDR3 and the human normal MDR1 P-glycoprotein was recombinantly expressed in the yeast Pichia pastoris essentially as in^45, 46 and used for assaying ATP hydrolysis and ATP binding to the protein in the presence of the 29-variants. Purification of the protein was performed as described^49 with small modifications resulting in highly enriched P-gp in mixed micelles containing dodecyl maltoside (DDM) and lysophosphatidyl choline^26.
Nanodisc assembly. Human P-gp in mixed detergent micelles obtained during protein purification, was reconstituted into nanodiscsas described in references^73, 74 with small modifications. […] The detergent was removed with Bio-Beads™ SM-2 Adsorbent Media (BioRad). Ni-NTA Agarose (Qiagen) chromatography was used to purify P-gp reconstituted nanodiscs using 6 bed volumes of start buffer (20% (v/v) glycerol, 50 mM Tris-CL pH 7.5 at 4° C., 50 mM NaCl), and 5 bed volumes of elution buffer (20% (v/v) glycerol, 50 mM Tris-Cl pH 7.5 at 4° C., 50 mM NaCl, 300 mM imidazole).
ATPase Activity Assays. ATP hydrolysis activity was measured using a coupled enzyme assay^72 as modified in reference^26.

[3] = target: P-gp (P-gp over-expressing cell line, DU145TXR) (Homo sapiens, UniProt P08183); test: Cellular accumulation of experimental compounds by LC-MS/MS with and without tariquidar; conditions: for Transport substrate for P-gp: not told
Sequence of P-gp (P-gp over-expressing cell line, DU145TXR) (P08183 whole entry): as above
Description: Stimulation of basal ATPase by 29-variants was used as an indicator that a compound may be a P-gp transport substrate. Effects on stimulated P-gp ATPase activity indicated whether a compound directly interfered with ATP usage by the protein (***, p<0.001; **, p<0.01; *, p<0.1; NS, not significant). Quantitative cellular accumulation of 29-variants was performed using LC-MS/MS and is presented as a ratio of the cellular amounts of 29-variants in the presence of P-gp inhibitor, tariquidar, divided by amounts accumulated in its absence. […] Binding of an ATP analog, SL-ATP, to P-gp was used to determine whether ATP binding to P-gp was affected by the 29-variants. Values +/−standard deviations are shown for at least three different P-gp preparations and three independent SL-ATP titration experiments. The values for SL-ATP binding in the presence of 29 were taken directly from Brewer et al. (2014).
Intracellular accumulation of compound 29 variants. Cell accumulation assays for each of the 29 variants were performed as in reference^28 to more directly assess whether the compounds were indeed transport substrates for P-gp.
Cellular Accumulation Assays for Experimental P-gp Inhibitors. Cells used (DU145TXR), cell culturing, cell exposure to compounds, cellular handling and extractions were performed as described in^28. LC-MS/MS methods were performed as described in^71 and as modified in^28.

Structure (SMILES) | Fold vs PTX + 29 ([1]; 3 μM inhibitor) | Fold vs PTX (fold increased sensitivity) ([1]; 7 μM inhibitor) | Effect on stimulated ATPase [2] | Stimulated ATPase [2] | Effect on basal ATPase [2] | Basal ATPase [2] | Intracellular accumulation in absence vs presence of tariquidar (in words) [3] | Cellular accumulation: ratio of plus Tariquidar over no Tariquidar ([3]; human) | Cellular accumulation: ratio of plus Tariquidar over no Tariquidar [3] | Transport substrate for P-gp ([3]; human) | Fold vs PTX (fold increased sensitivity) ([1]; 3 μM inhibitor) | other results
Cc1cc(C)c(-c2cc(NC(=O)CSCC(=O)Nc3ccc4ncsc4c3)n(-c3ccccc3)n2)cc1C [29-255, 2-({[(1,3-benzothiazol-6-yl)carbamoyl]methyl}sulfanyl)-N-[1-phenyl-3-(2,4,5 trimethylphenyl)-1H-pyrazol-5-yl]acetamide] | comparable to 238 at 3 μM | about a thousand-fold | inhibitor | 59 ± 6 % of DMSO | none | 84 ± 9 % of DMSO | more modest, but statistically significant increases | 1.2 |  |  |  | Resensitization of DU145TXR to paclitaxel / MDR reversal (in words) ([1]; listed as 255): increased paclitaxel toxicities to the greatest extents; also recorded: vastly outperformed compounds 278, 280 and 286; also recorded: reversed MDR
Cc1cc(C)c(-c2cc(NC(=O)CSCC(=O)NC34CC5CC(CC(C5)C3)C4)n(-c3ccccc3)n2)cc1C [29-278, 2-({[(adamantan-1-yl)carbamoyl]methyl}sulfanyl)-N-[1-phenyl-3-(2,4,5-trimethylphenyl)-1H-pyrazol-5-yl]acetamide] |  |  | inhibitor | 63 ± 6 % of DMSO | inhibitor | 74 ± 6 % of DMSO |  | 1.0 |  |  |  | Resensitization of DU145TXR to paclitaxel / MDR reversal (in words) ([1]; listed as 278): affected MDR relatively weakly
Cc1cc(C)c(-c2cc(NC(=O)CSCC(=O)NCc3ccc(F)cc3)n(-c3ccccc3)n2)cc1C [29-286] |  |  | inhibitor | 59 ± 4 % of DMSO | none | 95 ± 3 % of DMSO | more modest, but statistically significant increases |  | 1.3 |  |  | Resensitization of DU145TXR to paclitaxel / MDR reversal (in words) ([1]; listed as 286): little effect
Cc1cc(C)c(-c2cc(NC(=O)CSc3nnc4c(n3)[nH]c3ccccc34)n(-c3ccccc3)n2)cc1C [29-541, 2-((5H-[1,2,4]triazino[5,6-b]indol-3-yl)thio)-N-(1-phenyl-3-(2,4,5-trimethylphenyl)-1H-pyrazol-5-yl)acetamide] |  |  | inhibitor | 66 ± 6 % of DMSO | none | 87 ± 9 % of DMSO |  | 1.0 |  | none of the Group 1 compounds functions as a transport substrate of P-gp |  | Resensitization of DU145TXR to paclitaxel / MDR reversal (in words) ([1]; listed as 541): re-sensitized; also recorded: more effective than 29 at all concentrations tested; Transport substrate for P-gp [3]: no
Cc1cc(C)c(-c2cc(NC(=O)CSc3cccc(NC(=O)c4cncc(Br)c4)c3)n(-c3ccccc3)n2)cc1C [29-551, 5-bromo-N-(3-((2-oxo-2-((1-phenyl-3-(2,4,5-trimethylphenyl)-1H-pyrazol-5-yl)amino)ethyl)thio)phenyl)nicotinamide] |  |  | inhibitor | 27 ± 1 % of DMSO | inhibitor | 72 ± 9 % of DMSO |  | 1.1 |  | none of the Group 1 compounds functions as a transport substrate of P-gp | 38 fold | Resensitization of DU145TXR to paclitaxel / MDR reversal (in words) ([1]; listed as 551): re-sensitized; also recorded: more effective than 29 at all concentrations tested
Cc1cc(C)c(-c2cc(NC(=O)CSc3nnc(C4CC4)[nH]3)n(-c3ccccc3)n2)cc1C [compound 29, reference compound] | 1 fold | 36 fold | inhibitor | 62 ± 3 % of DMSO | none | 88 ± 9 % of DMSO | no significant difference |  | 1.0 |  | 3 fold | Fold vs PTX + 29 ([1]; 5 μM inhibitor): 1 fold; Fold vs PTX (fold increased sensitivity) ([1]; 5 μM inhibitor): 11 fold; Fold vs PTX + 29 ([1]; 7 μM inhibitor): 1 fold; Fold vs PTX + 29 ([1]; 10 μM inhibitor): 1 fold; Fold vs PTX (fold increased sensitivity) ([1]; 10 μM inhibitor): 101 fold
